One block for each molecule: values may come before it. No end group written: not given here.
Legend:
[1] = Peptide solubility on reconstitution; assay type: physicochemical
Description: Upon receiving the peptides from the synthesizing company (as powder), they were reconstituted in water, in PBS or in medium. Thus it is immediately apparent whether a peptide is soluble or not.

[2] = system: NF-κB activated by IL1β (IL1RI signaling), HEK-Blue IL1β cells; test: IL1RI signaling assay, HEK-Blue IL1β reporter cells (NF-κB/SEAP); assay type: cell-based; settings: IL1β 1.2 μM
Description: (§1) IL1RI signaling assay: Commercially available Blue™ Cytokine Reporter Cell technology from InvivoGen (Denmark distributor: Sigma-Aldrich Denmark) was used. It is represented by an expanding family of engineered cell lines designed to provide a simple, rapid, and reliable method of monitoring the activation of signaling pathways induced by key cytokines. HEK-Blue™ IL1β cells are specifically engineered to selectively respond to IL1β, and they feature the secreted embryonic alkaline phosphatase (SEAP) reporter gene under the control of an NF-κB-inducible promoter. […] A target/receptor-specificity of the Ilantafin effect was verified employing HEK-Blue™ IL6 cells.

[3] = system: IL1β-activated AMJ2-C8 macrophage cells; test: TNFα secretion by IL1β-activated macrophages (L929/MTS bioassay); assay type: cell-based; settings: IL1β 1.2 μM
Description: The Ilantafin peptide or IL1Ra or IL1RI was added to cultures of macrophages (AMJ2-C8) seeded in 6-well multi-dishes (Nunc) (2.5×10^5 cells/well). After 24 h of incubation at 37° C., IL1β (1.2 μM) was added to the cultures to activate the macrophages. L929 cells were seeded in a 96-well plate at a density of 2×10^5 cells/mL. Both cell cultures were incubated for 24 h at 37° C. Conditioned medium from the macrophage cultures was collected and added to the fibroblast cultures together with 0.6 μg/well actinomycin. D (Sigma-Aldrich). Finally, after 24 h of incubation at 37° C., 20 μl of 3-(4,5-dimethylthiazol-2-yl)-5-(3-carboxymethoxyphenyl)-2-(4-sulfophenyl)-2H-tetrazolium (MTS) (Promega, Madison, Wis., USA) was added to each well and the plates were incubated protected from light, at 37° C., for ˜45 min and the optical density was measured at 490 nm in a Sunrise absorbance reader (Tecan, Männedorf, Switzerland). In order to calculate the amount of TNF-α in the conditioned medium, a standard curve was obtained by treating fibroblasts with different concentrations of TNF-α (R&D systems, Minneapolis, Minn., USA).

[4] = system: cerebellar granule neurons; test: Neurite outgrowth in primary cerebellar granule neurons; assay type: cell-based, rat; settings: for neurite outgrowth: 24 h, primary cerebellar neurons
Description: Cerebellar granular neurons (CGN) were prepared from 3 or 7 postnatal (P) day Wistar rats (Charles River, Sulzfeld, Germany or Taconic, Ejby, Denmark). Cerebella were cleared of meninges and blood vessels, roughly homogenized by chopping, and trypsinized with trypsin from Sigma-Aldrich (Brøndby, Denmark). The neurons were washed in the presence of DNAse 1 and soybean trypsin inhibitor (Sigma-Aldrich), and cellular debris was pelleted by centrifugation before plating. CGNs were plated at a density of 10,000 cells/well onto uncoated eight-well Lab-Tek chamber slides (NUNC, Slangerup, Denmark) in Neurobasal-A medium supplemented with 0.4% (w/v) BSA. Peptides or proteins at various concentrations were added to the medium immediately after plating, and cells were maintained at 37° C. and 5% CO2 for 24 h. Cultures then were fixed, blocked and incubated with polyclonal rabbit antibody against rat GAP-43 (Chemicon, Temecula, Calif., USA) followed by incubation with secondary Alexa Fluor488 goat anti-rabbit antibody (Molecular Probes, Eugene, Oreg., USA) as previously described (Neiiendam et al., 2004). The immunostained cultures were all recorded by computer-assisted fluorescence microscopy using a Nikon Diaphot inverted microscope (Nikon, Japan) equipped with a Nikon Plane 20× objective. Images were captured with a charge-coupled device video camera (Grundig Electronics, Nurnberg, Germany) using the software package Prima developed at the Protein Laboratory (University of Copenhagen, Copenhagen, Denmark). The length of neuronal processes per cell was estimated using the software package Process Length developed at the Protein Laboratory (Ronn et al. 2000). For estimation of neurite outgrowth, at least 200±20 cells were processed for each group in each individual experiment.

[5] = biological target: T1, IL1RI (Homo sapiens, UniProt P14778); test: Kb (s^-1)
T1 construct: The recombinant protein comprising the whole extracellular part of IIL1RI was immobilised on the surface of a CM5 sensor chip
Description: (§2) Table printed on a drawing sheet, Figure 3
Head of the field: Kb (s^-1)
(§3) First copying reader's note: Rate and affinity constants for binding to IL1RI; each cell holds the value with its ± error, and Ilantafin is a peptide while ILRa and IL1β are proteins.

[6] = biological target: T1, IL1RI; test: ka (M^-1s^-1)
Description: as §2
Head of the field: ka (M^-1s^-1)
as §3

[7] = system: cerebellar granule neurons; test: Survival assay, cerebellar granule neurons, low-potassium apoptosis; assay type: cell-based, rat; settings: 5 mM KCl, 2 days
Description: Survival assay: Primary cultures of CGN were plated at a density of 100,000 cells/cm2 on poly-L-lysine coated 8-well permanox slides in Neurobasal-A medium (Gibco BRL) supplemented with 2% (v/v) B27, 0.5% (v/v) glutamax, 100 units/mL penicillin, 100 µg/mL streptomycin and KCl, making the final concentration of KCl in the medium 40 mM. 24 hours after plating, cytosine-b-D-arabinofuranoside (Ara-C; Sigma-Aldrich) was added to a final concentration of 10 μM to avoid proliferation of glial cells, after which the neurons were allowed to differentiate for a further 6 days at 37° C. Apoptotic cell death was induced by washing twice and changing the medium to Basal Medium Eagle (BME; Gibco BRL) supplemented with 1% (v/v) glutamine, 100 U/mL penicillin and 100 µg/mL streptomycin, 3.5 g D-glucose/L and 1% (v/v) sodium pyruvate (Gibco BRL) together with various concentrations of peptide. Thereby the concentration of potassium in the cultures was reduced to 5 mM KCl (Ditlevsen et al., 2003). Two days after induction of apoptosis, the cells were fixed with 4% (v/v) formaldehyde and stained with Hoechst 33258 as described for the survival assay employing hippocampal neurons.

[8] = system: collagen-induced arthritis (CIA); test: Collagen-induced arthritis in rats, treatment from day 15 (Example 7); assay type: in vivo, rat; settings: 3.3 and 10 mg/kg s.c. daily from day 15
Description: Rheumatoid arthritis is a chronic, inflammatory, systemic autoimmune disease that affects about 1% of the general population in Western countries. Collagen-induced arthritis (CIA) in rats is a widely employed animal model for the screening of anti-inflammatory compounds. Collagen bovine, type II (CII, Cat.no.20021, Lot 090209, Chondrex, USA), Complete Freund's Adjuvant, containing 0.1% of Mycobacterium tuberculosis (CFA, Cat.no. F5581, Lot 049K8700, Sigma-Aldrich), Incomplete Freund's Adjuvant (IFA, Cat.no. F5506, Lot 058K8702, Sigma). PBS (Panum Institute, Copenhagen University). Isofluran (Baxter). Animals were immunized twice: on day 0 (CII+CFA) and on day 10 (CII+IFA, booster). On day 15 the mean clinical score reached a value of 5.0 and all animals were divided into 3 groups so that the severity of disease (mean clinical score) in all groups was almost equal. The peptide (two doses, 3.3 and 10 mg/kg) was administered subcutaneously daily starting at day 15. The clinical evaluation of the arthritis severity was assessed using the following grading system: O— no redness or swelling in foot and palm; 1—slight swelling or redness in metatarsophalangeal joint and ankle joint foot or palm; 2—progressed swelling/inflammation and redness from ankle to mid foot or in entire palm; 3—swelling/inflammation of entire foot except toes; 4—swelling and inflammation of entire foot including toes.

[9] = system: STAT signalling induced by IL6, HEK-Blue IL6 cells; test: Target specificity, HEK-Blue IL6 cells; assay type: cell-based
Description: as §1

solubility in PBS or medium [1]: not soluble in PBS or medium
solubility in water [1]: soluble in water
Molecule: AGYLQGPNVN-OH [Ilantafin-2]

Molecule: AQMKSSKRGS (listed as Homo sapiens) [Ilantafin rev-d, reference compound]
inhibition of NF-κB activation induced by IL1β [2]: neither two peptides with scrambled sequences, Ilantafin scr-d1 (KQSAGKRSMS) (SEQ ID NO:39), Ilantafin scr-d2 (KASQKGMSRS) (SEQ ID NO:40), nor a peptide with the reverseequence, Ilantafin rev-d (AQMKSSKRGS) (SEQ ID NO:41) inhibit the activation of NF-KB induced by IL1β

solubility [1]: completely insoluble when produced
Molecule: EGVMVTKFYFQED-OH [Ilantafin-5, EGVMVTKFYFQED]

Molecule: IL1Ra: IL-1 receptor antagonist protein; commercial IL1Ra used as positive control
inhibition of NF-κB activation induced by IL1β [2]: inhibitory effect
inhibition of TNFα secretion by IL1β-activated macrophages [3]: also inhibit macrophage activation
neurite outgrowth [4]: induce neurite outgrowth in primary cerebellar neurons in a dose-dependent manner

Kb (s^-1) [5]: 2.69 ± 0.58 x 10^-3 s^-1
ka (M^-1s^-1) [6]: 1.84 ± 0.20 x 10^5 M^-1s^-1
Molecule: IL1β: Interleukin-1 beta, pro-inflammatory cytokine, agonist of the IL1 receptor [listing 1 of 2 here]

Molecule: IL1β: Interleukin-1 beta, pro-inflammatory cytokine, agonist of the IL1 receptor [listing 2 of 2 here]
neurite outgrowth [4]: does not affect neuritogenesis
effect on Ilantafin- and IL1Ra-induced neurite outgrowth ([4]; co-treatment): inhibits Ilantafin- and IL1Ra induced neurite outgrowth

Molecule: KASQKGMSRS (listed as Homo sapiens) [Ilantafin scr-d2, reference compound]
inhibition of NF-κB activation induced by IL1β [2]: neither two peptides with scrambled sequences, Ilantafin scr-d1 (KQSAGKRSMS) (SEQ ID NO:39), Ilantafin scr-d2 (KASQKGMSRS) (SEQ ID NO:40), nor a peptide with the reverseequence, Ilantafin rev-d (AQMKSSKRGS) (SEQ ID NO:41) inhibit the activation of NF-KB induced by IL1β

Molecule: KQSAGKRSMS (listed as Homo sapiens) [Ilantafin scr-d1, reference compound]
inhibition of NF-κB activation induced by IL1β [2]: neither two peptides with scrambled sequences, Ilantafin scr-d1 (KQSAGKRSMS) (SEQ ID NO:39), Ilantafin scr-d2 (KASQKGMSRS) (SEQ ID NO:40), nor a peptide with the reverseequence, Ilantafin rev-d (AQMKSSKRGS) (SEQ ID NO:41) inhibit the activation of NF-KB induced by IL1β

solubility in PBS or medium [1]: not soluble in PBS or medium
solubility in water [1]: soluble in water
Molecule: NQKTFYLRNNQL-OH [Ilantafin-6]

solubility in water [1]: not soluble in water
Molecule: NQLVAGYLQGPNVN-OH [Ilantafin-3]

Molecule: SGRKSSKMQA (also: tetrameric dendrimer; listed as Homo sapiens) [Ilantafin-d]
neuronal survival / cell death (apoptosis) induced by lowering potassium [7]: promotes survival of cerebellar granule neurons
clinical manifestations (clinical score) of CIA [8]: abrogated an increase in clinical manifestations of the disease
inhibition of NF-κB activation induced by IL1β [2]: inhibitory effect
inhibition of TNFα secretion by IL1β-activated macrophages [3]: inhibitory effect
effect on STAT signalling induced by IL6 [9]: does not affect the activation of STAT signalling induced by IL6

Molecule: SGRKSSKMQA-OH [Ilantafin-m]
neuronal survival / cell death (apoptosis) induced by lowering potassium [7]: promotes survival of cerebellar granule neurons
inhibition of NF-κB activation induced by IL1β [2]: inhibitory effect
inhibition of TNFα secretion by IL1β-activated macrophages [3]: inhibitory effect

solubility in water [1]: not soluble in water
Molecule: VTKFYFQED-OH [Ilantafin-4, VTKFYFQED]

B1: SIL1RI: soluble IL1 receptor type 1 protein, positive control (protein)
chain: LEADKCKEREEKIILVSSANEIDVRPCPLNPNEHKGTITWYKDDSKTPVSTEQASRIHQHKEKLWFVPAKVEDSGHYYCVVRNSSYCLRIKISAKFVENEPNLCYNAQAIFKQKLPVAGDGGLVCPYMEFFKNENNELPKLQWYKDCKPLLLDNIHFSGVKDRLIVMNVAEKHRGNYTCHASYTYLGKQYPITRVIEFITLEENKPTRPVIVSPANETMEVDLGSQIQLICNVTGQLSDIAYWKWNGSVIDEDDPVLGEDYYSVENPANKRRSTLITVLNISEIESRFYKHPFTCFAKNTHGIDAAYIQLIYPVTNFQK
inhibition of NF-κB activation induced by IL1β [2]: inhibitory effect
inhibition of TNFα secretion by IL1β-activated macrophages [3]: also inhibit macrophage activation
neurite outgrowth [4]: induce neurite outgrowth in primary cerebellar neurons in a dose-dependent manner

Source: patent publication US9359405B2, “Antagonists of the interleukin-1 receptor” (Phlogo ApS, priority 2011, dated 2016)
